The values below come from patent US20250340457A1, “SYSTEMS AND METHODS FOR EXTRACTION OF FLUORINATED HYDROCARBONS” (Khalifa University of Science and Technology, priority 2024, published 2025).

Data set [1] can be described thus: Thermogravimetric analysis (onset decomposition temperature). It is filed as physicochemical. An excerpt: FIG. 6B illustrates thermogravimetric profiles of TOPO, LauA, and TOPO: LauA (1:1), according to some embodiments. Thermogravimetric analysis is another essential solvent characterization method and is vital for identifying the maximum operational temperature range of a solvent. The onset decomposition temperature (Tonset) marks the start of a noticeable weight loss, indicating initial thermal degradation. Table 3 lists the onset temperatures for TOPO: LauA (1:1), and its thermogravimetric profile is shown in FIG. 6B along with the profiles of pure TOPO and lauric acid for comparison. Hydrogen bonding plays an important role in DES stability by reducing molecular volatility and increasing the energy needed for decomposition. […] This intermediate Tonset reflects the delicate balance of H-bonding strength in the DES that is affected from both the stability of the individual components and the new interactions they form when combined.

The conditions of data set [2]: cited from earlier work.
For data set [3] the following is noted: cited from earlier work. This is another data set of the same source.
The test system of a further data set is rat. The conditions noted are these: cited from earlier work.
The conditions of data set [4]: 25° C.; cited from earlier work.

The structures appear in SMILES notation. Converted amounts (≈) assume the structure as drawn. Read-outs that look alike come from different tables or passages of the source.

As to `CCCCCCCCCCCC(=O)O` [Lauric acid, lauric acid], in data set [1], the “Onset decomposition temperature (Tonset)” value was 207 °C. For the same compound, in data set [2], the water solubility is 0.4 µg/mL (≈ 2 µM).
In the case of `O=C(O)C(F)(F)C(F)(F)C(F)(F)C(F)(F)C(F)(F)C(F)(F)C(F)(F)F` [PFOA, perfluorooctanoic acid], the serum elimination half-lives in data set [3] is recorded as 5.4 years.
As to `O=S(=O)(O)C(F)(F)C(F)(F)C(F)(F)C(F)(F)C(F)(F)C(F)(F)C(F)(F)C(F)(F)F` [PFOS, perfluorooctane sulfonic acid], the serum elimination half-lives in data set [3] is recorded as 3.8 years.
`CCCCCCCCP(=O)(CCCCCCCC)CCCCCCCC` [TOPO, trioctylphosphine oxide]: the “Onset decomposition temperature (Tonset)” value in data set [1] is 281 °C. For the same compound, the water solubility in data set [2] is 0.15 µg/mL (≈ 0.388 µM). The “LD50 (oral, rat)” value with rat (in vivo, po) is on record as 2,000 mg/kg.
Turning to `C[N+](C)(C)CCO.[Cl-]` [choline chloride, reference compound], the “LD50 (oral, rat)” value in the data set with rat (oral) is reported as 3,900 mg/kg.
Consider `Cc1ccc(C(C)C)c(O)c1` [thymol], for which the inherent density in data set [4] was 0.967 g/mL.
